In brackets after ≈: the same amount, converted by molar mass.
Tests used:
[1] = test system: HeLa cells; assay: Toxicity (IC50) on HeLa cells; type: cell-based, human; conditions: for IC50: Homo sapiens, cancerous cervical epithelium HeLa cells
Protocol: The toxicities of the compounds of the invention were determined for human cancerous cervical epithelium HeLa and normal lung fibroblast WI38 cells. The toxicities of EPIs INF-55 and INF-55Cl were quantified as controls. […] TABLE 2 compares the toxicity of compounds 7-11 on HeLa cells and normal WI38 cells.

[2] = test system: P. aeruginosa; assay: Cell killing with compounds and PME at fixed concentrations, with and without white light; type: cell-based; conditions: 20 μM compound and 0.1 μg/mL PME
Protocol: FIG. 26 is an example of the treatment of P. aeruginosa with compound 1 and PME at fixed concentrations.
P. aeruginosa cells were also treated with white light upon being incubated with compound 1 for different durations of time. In a 12×75 mm borosilicate glass culture tube, 1 mL of cell suspension was added. PME was added to the cells, and the samples were mixed using a vortex mixer. The resulting samples were incubated for 1.5 hours at 37° C. on a rotary shaking incubator at 100 rpm. Compound 1 was then added, and the samples were incubated for 30 minutes at 37° C. on a rotary shaking incubator at 100 rpm. The samples were then irradiated with white light using a Lumacare™ LC-122 for 2 minutes (irradiation λ1) and incubated overnight at 37° C. The samples were irradiated again with white light using a Lumacare™ LC-122 for 2 minutes (irradiation λ2). Ten-fold dilutions were made of each sample, and 10 μL of each dilution was drip-streaked onto an agar plate. The samples were incubated overnight at 37° C., and colony counts were performed to calculate CFU/mL.
FIG. 55 is an illustrative example of the treatment of P. aeruginosa with compound 1, PME, co-treatment with compound 1 and PME, and co-treatment with compound 1, PME, and light (λ1 and λ2) at fixed concentrations.

[3] = test system: Klebsiella pneumoniae (CRE, ATCC BAA-1705); assay: Time-dependent colony counts of CRE with compounds and PME; type: cell-based; conditions: PME 0.2 μg/mL, compound 20 μM; FIGS. 48, 49
Protocol: The MICs of PME and compounds 8-11 were determined against Klebsiella pneumoniae (CRE, ATCC BAA-1705). […] […] At specific time points, the samples were taken and diluted ten-fold in media. Ten microliters of each dilution was then drip-streaked onto an agar plate and incubated overnight at 37° C. Colony counts were then performed and the CFU/mL were calculated.

[4] = test system: MRSA (ATCC BAA-44); assay: Synergy with oxacillin and norfloxacin and other antibiotics (colony counts); type: cell-based, S. aureus; conditions: for Synergy with Norfloxacin / Synergy with Oxacillin: TABLE 6; for log reduction in the number of surviving cells (CFU/mL), co-treatment with norfloxacin / log reduction in the number of surviving cells (CFU/mL), co-treatment with oxacillin: compared to compound alone, FIGS. 34, 39, 41; for Orders of Magnitude with Norfloxacin / Orders of Magnitude with Oxacillin: increase in ability to kill MRSA versus drug or compound alone
Protocol: The synergy of compounds 1 and 7-11 with oxacillin and norfloxacin was tested against MRSA (ATCC BAA-44). An overnight culture of MRSA was first diluted to about 5×10^5 CFU/mL in TSB. Then, 1 mL of the diluted broth suspension was added to a borosilicate glass culture tube. An appropriate volume of a compound or an antibiotic drug stock was added to the broth suspension and mixed using a vortex mixer. Then an appropriate volume of an antibiotic was added to test synergy with compounds 7-11. The samples were subsequently mixed using a vortex mixer, and the samples were incubated for 18 hours at 37° C. on a rotary shaking incubator. After 18 hours, the test cultures were diluted ten-fold, 10 μL of each dilution was drip-streaked onto a TSA plate, and the samples were incubated for 18 hours at 37° C. Colony counts were then performed and the CFU/mL values were calculated.
TABLE 21 details the MIC values identified in the MRSA assay of compounds 1, 7, 8, 9, 10, 11, various antibiotics, and light.

[5] = test system: VRE; assay: MIC against VRE; type: cell-based, Enterococcus faecalis; conditions: Enterococcus, TABLE 23, read-out: VRE MIC
Protocol: In a 12×75 mm borosilicate glass culture tube, 1 mL of cell suspension was added. Then, compound 7 was added to the cells, and the samples were mixed using a vortex mixer. […] The samples were incubated overnight at 37° C. on a rotary shaking incubator at 100 rpm.

[6] = test system: VRE; assay: Resensitization to antibiotics (log reduction, TABLE 29); type: cell-based, Enterococcus faecalis
Protocol: (§1) In a 96-well microtiter plate, two-fold dilutions were made of each drug (starting with 100 μM) in 100 μL of a cell suspension in TSB. The resulting samples were incubated overnight at 37° C. on a rotary shaking incubator at 100 rpm. The samples were then visually inspected for turbidity. A 20% well volume of MTT reagent (5 mg/mL) was subsequently added, and the samples were incubated for about 20 minutes.

[7] = test system: CRE; assay: as above; type: cell-based; conditions: compound 20 μM; PME (0.2 μg/mL)
Protocol: as §1

[8] = test system: drug-resistant bacteria; assay: Summary of synergistic activities with antibiotic families (TABLE 45); type: cell-based; conditions: for Synergy with Oxacillin (β-lactama): *indicated ampicillin, dicloxicillin and Penicillin G
Excerpt: TABLE 45 summarizes the synergistic activities of the seven classes of clinically used antibiotics and compounds of the invention against a variety of different drug-resistant bacteria.

[9] = (⅛) MIC compound + (1/16) MIC Norfloxacin
[10] = (⅛) MIC compound + (⅛) MIC Oxacillin
[11] = (⅛) MIC compound + (1/7) MIC Norfloxacin
[12] = (⅛) MIC compound + (¼) MIC Oxacillin

Compound | IC50 [1] | Co-treatment with PME: log reduction in the CFU/mL compared to PME alone [2] | CRE colony populations on simultaneous treatment with PME [3] | Synergy with Norfloxacin [4] | Synergy with Oxacillin [4] | log reduction in the number of surviving cells (CFU/mL), co-treatment with norfloxacin [4] | log reduction in the number of surviving cells (CFU/mL), co-treatment with oxacillin [4] | Orders of Magnitude with Norfloxacin [4] | Orders of Magnitude with Oxacillin [4] | MIC [5] | Log Reduction [7] | Synergy with Polymyxin B (Polypeptides) ([8]; A. baumannii ATCC 15151) | Synergy with Polymyxin E (Polypeptides) ([8]; A. baumannii ATCC 15151) | Synergy with Polymyxin B (Polypeptides) ([8]; CRE ATCC 1705) | Synergy with Polymyxin E (Polypeptides) ([8]; CRE ATCC 1705) | Synergy with Polymyxin B (Polypeptides) ([8]; CRE ATCC 2340) | Synergy with Polymyxin E (Polypeptides) ([8]; CRE ATCC 2340) | Synergy with Polymyxin B (Polypeptides) ([8]; CRE ATCC 2341) | Synergy with Polymyxin E (Polypeptides) ([8]; CRE ATCC 2341) | Synergy with Polymyxin B (Polypeptides) ([8]; CRE ATCC 2342) | also measured
Clc1ccc(Oc2c(-c3ccc(Cl)cc3)[nH]c3ccccc23)cc1 [Compound 10] | 36.8 µM | 2-log reduction | reduced the CRE colony populations to sterility | 5-log reduction | 4-log reduction | ~5 log | ~4 log | 8 | 8 | 10 to 20 µM (≈ 3.54 to 7.08 µg/mL) | 6 | Synergy | Synergy | Synergy | Synergy | Synergy | Synergy | Synergy | Synergy | Synergy | toxicity to HeLa versus normal WI38 cells ([1]; comparison of TABLE 2 values): killed cancerous HeLa cells at concentrations that were not toxic to normal WI38 cells; Co-treatment with PME: log reduction in the CFU/mL compared to PME alone ([2]; listed as compound 10): ~2 log reduction; % Kill [4, 9]: 99.99%; Surviving MRSA [4, 9]: 1.00 × 10^−8; % Kill [4, 10]: 99.99%; Surviving MRSA [4, 10]: 1.00 × 10^−8; MICs greater than cells treated with compound alone, with norfloxacin ([4]; FIGS. 35-38): eight-fold; MICs greater than cells treated with compound alone, with oxacillin ([4]; FIGS. 35-38): eight-fold; Log Reduction ([6]; compound 2 μM, Tetracycline (1 μg/mL)): 3-4; Log Reduction ([6]; compound […], Vancomycin (3.5 μg/mL)): 4; Synergy with Polymyxin E (Polypeptides) ([8]; CRE ATCC 2342): Synergy; Synergy with Norfioxacin (Fluoroquinolones) ([8]; MRSA ATCC BAA-44): Synergy; Synergy with Oxacillin (β-lactama) ([8]; MRSA ATCC BAA-44): Synergy*; Synergy with Polymyxin B (Polypeptides) ([8]; P. aeruginosa ATCC 27853): Synergy; Synergy with Polymyxin E (Polypeptides) ([8]; P. aeruginosa ATCC 27853): Synergy; Synergy with Norfioxacin (Fluoroquinolones) ([8]; VRE ATCC 51299): Synergy; Synergy with Tetracycline (Tetracyclines) ([8]; VRE ATCC 51299): Synergy; Synergy with Vancomycin (Glycopeptides) ([8]; VRE ATCC 51299): Synergy; Synergy with β-lactama (Oxacillin column; cell says dicloxicillin) ([8]; VRE ATCC 51299, dicloxicillin): Synergy
Clc1ccc(Oc2c(-c3ccc(Cl)cc3)[nH]c3ccc(Cl)cc23)cc1 [Compound 11] | 25.9 µM | 2-log reduction | reduced the CRE colony populations to sterility | 8-log reduction | 5-log reduction | ~8 log | ~5 log | 5 | 5 | 20 µM (≈ 7.77 µg/mL) | 6 | Synergy | Synergy | Synergy | Synergy | Synergy | Synergy | Synergy | Synergy | Synergy | Co-treatment with PME: log reduction in the CFU/mL compared to PME alone ([2]; listed as compound 11): about 2 log reduction; % Kill [4, 11]: 99.99%; Surviving MRSA [4, 11]: 1.00 × 10^−5; % Kill [4, 12]: 99.99%; Surviving MRSA [4, 12]: 1.00 × 10^−5; killing of MRSA in conjunction with oxacillin ([4]; compound 11 at 1 μM, FIG. 40): more effective at killing MRSA when used in conjunction with oxacillin; Log Reduction ([6]; compound 0.5 μM, Norfloxacin ([…])): 3-4; Log Reduction ([6]; compound 0.5 μM, Tetracycline (1.5 μg/mL)): 3; Log Reduction ([6]; compound 0.5 μM, Vancomycin (3.5 μg/mL)): 3; Synergy with Polymyxin E (Polypeptides) ([8]; CRE ATCC 2342): Synergy; Synergy with Norfioxacin (Fluoroquinolones) ([8]; MRSA ATCC BAA-44): Synergy; Synergy with Oxacillin (β-lactama) ([8]; MRSA ATCC BAA-44): Synergy*; Synergy with Polymyxin B (Polypeptides) ([8]; P. aeruginosa ATCC 27853): Synergy; Synergy with Polymyxin E (Polypeptides) ([8]; P. aeruginosa ATCC 27853): Synergy; Synergy with Norfioxacin (Fluoroquinolones) ([8]; VRE ATCC 51299): Synergy; Synergy with Tetracycline (Tetracyclines) ([8]; VRE ATCC 51299): Synergy; Synergy with Vancomycin (Glycopeptides) ([8]; VRE ATCC 51299): Synergy

Source: patent publication US9834514B2, “Antibiotic sensitivity-restoring and photosensitive agents” (New Mexico Tech Research Foundation, priority 2015, dated 2017)
